Assay results from PubChem BioAssay AID328 (DTP/NCI, 2004).
Several values for one entry are separate records, joined by “and”; a condition that tells them apart may be missing. Equal values may be shown once. Toxic doses and inconclusive results are not listed.

Tested on: BDF1 mice, P388 leukemia ip, median survival T/C
Assay: NCI In Vivo Anticancer Drug Screen. Data for tumor model P388 Leukemia (intraperitoneal) in B6D2F1 (BDF1) mice
Settings: endpoint: median survival time, higher = longer survival
In short: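 In tumour-bearing mice, survival after compound treatment is set against the vehicle group and given as a quotient.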

[1] = dose: 6.25 mg/kg/injection, schedule: Q01DX009 (ip), vehicle: saline with Tween-80
[2] = dose: 12.5 mg/kg/injection, schedule: Q01DX009 (ip), vehicle: saline with Tween-80
[3] = dose: 100.0 mg/kg/injection, schedule: Q01DX009 (ip), vehicle: saline
[4] = dose: 200.0 mg/kg/injection, schedule: Q01DX009 (ip), vehicle: saline
[5] = dose: 100.0 mg/kg/injection, schedule: Q04DX003 (ip), vehicle: saline with Tween-80
[6] = dose: 200.0 mg/kg/injection, schedule: Q04DX003 (ip), vehicle: saline with Tween-80
[7] = dose: 400.0 mg/kg/injection, schedule: Q04DX003 (ip), vehicle: saline with Tween-80
[8] = dose: 25.0 mg/kg/injection, schedule: Q01DX009 (ip), vehicle: saline with Tween-80
[9] = dose: 50.0 mg/kg/injection, schedule: Q01DX009 (ip), vehicle: saline with Tween-80
[10] = dose: 100.0 mg/kg/injection, schedule: Q01DX009 (ip), vehicle: saline with Tween-80
[11] = dose: 200.0 mg/kg/injection, schedule: Q01DX009 (ip), vehicle: saline with Tween-80

CC1=CC23C(=O)[C@@H](C=C(COC(=O)c4ccccc4)[C@@H](O)[C@]2(O)[C@H]1OC(=O)c1ccccc1)[C@H]1[C@@H](C[C@H]3C)C1(C)C
T/C (dose: 7.0 micrograms/kg/injection, schedule: Q01DX009 (ip), vehicle: saline with Tween-80): 197 % of control | T/C (dose: 8.0 micrograms/kg/injection, schedule: Q01DX009 (ip), vehicle: saline + alcohol): 110 % of control | T/C (dose: 11.0 micrograms/kg/injection, schedule: Q01DX009 (ip), vehicle: saline with Tween-80): 107 % of control | T/C (dose: 13.0 micrograms/kg/injection, schedule: Q01DX009 (ip), vehicle: saline + alcohol): 108 % of control | T/C (dose: 19.0 micrograms/kg/injection, schedule: Q01DX009 (ip), vehicle: saline with Tween-80): 113 % of control | T/C (dose: 21.0 micrograms/kg/injection, schedule: Q01DX009 (ip), vehicle: saline + alcohol): 110 % of control | T/C (dose: 31.0 micrograms/kg/injection, schedule: Q01DX009 (ip), vehicle: saline with Tween-80): 113 % of control | T/C (dose: 35.0 micrograms/kg/injection, schedule: Q01DX009 (ip), vehicle: saline + alcohol): 110 % of control | T/C (dose: 52.0 micrograms/kg/injection, schedule: Q01DX009 (ip), vehicle: saline with Tween-80): 124 % of control | T/C (dose: 59.0 micrograms/kg/injection, schedule: Q01DX009 (ip), vehicle: saline + alcohol): 107 % of control | T/C (dose: 86.0 micrograms/kg/injection, schedule: Q01DX009 (ip), vehicle: saline with Tween-80): 109 % of control | T/C (dose: 98.0 micrograms/kg/injection, schedule: Q01DX009 (ip), vehicle: saline + alcohol): 100 % of control | T/C (dose: 144.0 micrograms/kg/injection, schedule: Q01DX009 (ip), vehicle: saline with Tween-80): 113 % of control | T/C (dose: 240.0 micrograms/kg/injection, schedule: Q01DX009 (ip), vehicle: saline with Tween-80): 157 % of control

CC(C)=NNC(=O)C1CCN1C(c1ccccc1)c1ccccc1 (stereo not given)
T/C (dose: 50.0 mg/kg/injection, schedule: Q01DX001 (ip), vehicle: saline with Tween-80): 117 % of control | T/C (dose: 100.0 mg/kg/injection, schedule: Q01DX001 (ip), vehicle: saline with Tween-80): 102 % of control

O[C@H](CN1CC1)[C@@H](O)CN1CC1
T/C (dose: 62.5 micrograms/kg/injection, schedule: Q01DX010 (ip), vehicle: saline): 235 % of control | T/C (dose: 125.0 micrograms/kg/injection, schedule: Q01DX010 (ip), vehicle: saline): 230 % of control and 186 % of control | T/C (dose: 250.0 micrograms/kg/injection, schedule: Q01DX010 (ip), vehicle: saline): 227 % of control and 187 % of control | T/C (dose: 500.0 micrograms/kg/injection, schedule: Q01DX010 (ip), vehicle: saline): 116 % of control and 122 % of control

CP(c1ccccc1)c1ccccc1
T/C (dose: 50.0 mg/kg/injection, schedule: Q01DX009 (ip), vehicle: Klucel (hydroxypropylcellulose) (HPC)): 109 % of control | T/C (dose: 50.0 mg/kg/injection, schedule: Q04DX003 (ip), vehicle: Klucel (hydroxypropylcellulose) (HPC)): 113 % of control | T/C (dose: 100.0 mg/kg/injection, schedule: Q04DX003 (ip), vehicle: Klucel (hydroxypropylcellulose) (HPC)): 113 % of control | T/C (dose: 133.0 mg/kg/injection, schedule: Q01DX009 (ip), vehicle: Klucel (hydroxypropylcellulose) (HPC)): 100 % of control | T/C (dose: 200.0 mg/kg/injection, schedule: Q01DX009 (ip), vehicle: Klucel (hydroxypropylcellulose) (HPC)): 107 % of control | T/C (dose: 200.0 mg/kg/injection, schedule: Q04DX003 (ip), vehicle: Klucel (hydroxypropylcellulose) (HPC)): 104 % of control | T/C (dose: 300.0 mg/kg/injection, schedule: Q01DX009 (ip), vehicle: Klucel (hydroxypropylcellulose) (HPC)): 123 % of control

O=c1[nH]c2ccccc2nc1CBr
T/C [1]: 118 % of control and 122 % of control | T/C (dose: 7.5 mg/kg/injection, schedule: Q04DX003 (ip), vehicle: saline with Tween-80): 118 % of control | T/C [2]: 118 % of control | T/C (dose: 12.5 mg/kg/injection, schedule: Q04DX003 (ip), vehicle: saline with Tween-80): 109 % of control | T/C (dose: 15.0 mg/kg/injection, schedule: Q04DX003 (ip), vehicle: saline with Tween-80): 104 % of control | T/C (dose: 25.0 mg/kg/injection, schedule: Q04DX003 (ip), vehicle: saline with Tween-80): 113 % of control | T/C (dose: 30.0 mg/kg/injection, schedule: Q04DX003 (ip), vehicle: saline with Tween-80): 118 % of control | T/C (dose: 60.0 mg/kg/injection, schedule: Q04DX003 (ip), vehicle: saline with Tween-80): 100 % of control

CNC1C(O)C(OC2C(N)CC(N)C(OC3OC(CN)C(O)C(O)C3O)C2O)OCC1(C)O (stereo not given)
T/C [3]: 100 % of control | T/C [4]: 91 % of control | T/C (dose: 400.0 mg/kg/injection, schedule: Q01DX009 (ip), vehicle: saline): 108 % of control

CCOCc1cccc2ccccc12
T/C [5]: 109 % of control | T/C [6]: 100 % of control | T/C [7]: 118 % of control

CC12CCC3c4ccc(OP(=O)(N5CC5)N5CC5)cc4CCC3C1CCC2O (stereo not given)
T/C [2]: 102 % of control | T/C [8]: 93 % of control | T/C [9]: 121 % of control | T/C [10]: 121 % of control

O=[N+]([O-])c1ccc(-c2nnc3ncccn23)cc1
T/C [9]: 102 % of control | T/C [10]: 98 % of control | T/C [11]: 90 % of control

CC(C)c1nsc2c1C(=O)NC(C(C)(C)C)N2 (stereo not given)
T/C [9]: 109 % of control | T/C [10]: 89 % of control | T/C [11]: 95 % of control

COc1ccc2cc(Br)ccc2c1
T/C [5]: 95 % of control | T/C [6]: 109 % of control | T/C [7]: 100 % of control

Cc1cnc2nc(N)[nH]c(=O)c2c1
T/C (dose: 37.5 mg/kg/injection, schedule: Q04DX003 (ip), vehicle: saline sonified): 100 % of control | T/C (dose: 75.0 mg/kg/injection, schedule: Q04DX003 (ip), vehicle: saline sonified): 110 % of control | T/C (dose: 150.0 mg/kg/injection, schedule: Q04DX003 (ip), vehicle: saline sonified): 100 % of control

NC(N)=NC(N)=Nc1ccc2ccc3cccc4ccc1c2c34
T/C (dose: 25.0 mg/kg/injection, schedule: Q04DX003 (ip), vehicle: saline + alcohol): 98 % of control | T/C (dose: 50.0 mg/kg/injection, schedule: Q04DX003 (ip), vehicle: saline + alcohol): 106 % of control

Nc1ccc(S(=O)(=O)N/N=C/c2ccccc2[N+](=O)[O-])cc1
T/C [1]: 95 % of control | T/C [2]: 100 % of control | T/C [8]: 101 % of control

CCOC(=O)CCN1CCCCCC1
T/C (dose: 25.0 mg/kg/injection, schedule: Q01DX009 (ip), vehicle: saline): 91 % of control | T/C (dose: 50.0 mg/kg/injection, schedule: Q01DX009 (ip), vehicle: saline): 120 % of control | T/C [3]: 95 % of control | T/C (dose: 100.0 mg/kg/injection, schedule: Q04DX003 (ip), vehicle: saline): 100 % of control | T/C [4]: 92 % of control | T/C (dose: 200.0 mg/kg/injection, schedule: Q04DX003 (ip), vehicle: saline): 100 % of control | T/C (dose: 400.0 mg/kg/injection, schedule: Q04DX003 (ip), vehicle: saline): 118 % of control

c1ccc2sc(SSN3CC4CCC(CC4)C3)nc2c1
T/C [9]: 102 % of control and 122 % of control
